Measured values taken from BigSolDB 2.1.

COc1cccc(CCc2ccccc2OCC(CN(C)C)OC(=O)CCC(=O)O)c1.Cl (stereo not given)
solubility (mole fraction)
Conditions	in THF	in acetone	in acetonitrile	in ethanol	in isopropanol	in methanol	in n-butanol	in n-propanol
288.15 K	2.24e-05	4.85e-05	9.78e-05	0.00168	4.48e-05	0.00376	0.00011	0.000171
293.15 K	3.25e-05	7.84e-05	0.000141	0.00211	8.24e-05	0.00493	0.000146	0.000262
298.15 K	4.28e-05	0.000106	0.000171	0.00278	0.00011	0.00653	0.00019	0.000354
303.15 K	7.01e-05	0.000193	0.000239	0.00345	0.000144	0.00856	0.000294	0.000504
308.15 K	9.92e-05	0.000275	0.000313	0.00476	0.000186	0.0116	0.000412	0.000698
